Laboratory results published in patent US11180462B2, “Microbiocidal oxadiazole derivatives” (SYNGENTA PARTICIPATIONS AG, priority 2015, dated 2021).

Columns and labels:
Phakopsora Pachyrhizi = experiment: Fungicidal activity against Phakopsora pachyrhizi / soybean / leaf disc preventative (Asian soybean rust); assay type: in vivo; conditions: foliar, 200 ppm in the applied formulation, soybean leaf disks, compared to untreated control leaf disks, read-out: disease control
In short: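 Scored 12 to 14 days post-application as percent control relative to untreated check discs, rust spores were sprayed under the disc one day after compound treatment. Incubation: 20°C, 75% rh, first 24–36 h in darkness, then 12 h daily light; discs kept on water agar.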

[1] = test system: Puccinia recondita f. Sp. Tritici; experiment: Fungicidal activity against Puccinia recondita f. sp. tritici / wheat / leaf disc preventative (brown rust); assay type: in vivo; conditions: foliar, 200 ppm in the applied formulation, wheat leaf segments, preventative, compared to untreated control leaf disks, read-out: disease control
In short: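 200 ppm spray on wheat cv. Kanzler leaf segments; spore inoculation +1 day; 19° C., 75% rh, 12 h/12 h light cycle; single rating of % control vs untreated at 7 to 9 days.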

[2] = test system: Glomerella lagenarium (Colletotrichum lagenarium); experiment: Fungicidal activity against Glomerella lagenarium (Colletotrichum lagenarium) liquid culture / cucumber / preventative (anthracnose); assay type: cell-based; conditions: Colletotrichum orbiculare; 20 ppm in the applied formulation; liquid culture (PDB), growth inhibition measured photometrically after 3 to 4 days; compared to untreated control; read-out: disease control
In short: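 Percent activity against the untreated check was derived from photometric growth measurements made 2 to 7 days after conidia in potato dextrose broth were combined with compound at 20 ppm. Cultures were kept dark at 24 °C and 96% humidity.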

[3] = test system: Puccinia recondita f. Sp. Tritici; experiment: Fungicidal activity against Puccinia recondita f. sp. tritici / wheat / leaf disc curative (brown rust); assay type: in vivo; conditions: foliar, 24 h, 200 ppm in the applied formulation, wheat leaf segments, curative (applied 1 day after inoculation), compared to untreated control leaf disks, read-out: disease control
In short: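 Scoring is percent disease control relative to untreated segments, made 6 to 8 days after treatment. Wheat (cv. Kanzler) leaf segments received the formulated, water-diluted compound one day post-inoculation with spores, having been kept dark at 19° C and 75% RH, then incubated under 12 h light/12 h dark at the same temperature and humidity.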

CC(C)CC(=O)N(Cc1ccc(-c2noc(C(F)(F)F)n2)cc1)C1CC1 [Compound 1.109, N-cyclopropyl-3-methyl-N-[[4-[5-(trifluoromethyl)-1,2,4-oxadiazol-3-yl]phenyl]methyl]-butanamide]
≥ 80%: pest or weed control at 200 ppm (Phakopsora Pachyrhizi) | pest or weed control at 200 ppm [1] | inhibition of growth at 20 ppm [2] | pest or weed control at 200 ppm [3]

CC(C)N(Cc1ccc(-c2noc(C(F)(F)F)n2)cc1)C(=O)C1(C#N)CC1 [Compound 1.684, 1 cyano-N-isopropyl-N-[[4-[5-(trifluoromethyl)-1,2,4-oxadiazol-3-yl]phenyl]methyl]-cyclopropane-carboxamide]
≥ 80%: pest or weed control at 200 ppm (Phakopsora Pachyrhizi) | pest or weed control at 200 ppm [1] | inhibition of growth at 20 ppm [2] | pest or weed control at 200 ppm [3]

CCC(COC)C(=O)N(Cc1ccc(-c2noc(C(F)(F)F)n2)cc1)C1COC1 (stereo not shown) [Compound 1.745, 2-(methoxymethyl)-N-(oxetan-3-yl)-N-[[4-[5-(trifluoromethyl)-1,2,4-oxadiazol-3-yl]phenyl]methyl]-butanamide]
≥ 80%: pest or weed control at 200 ppm (Phakopsora Pachyrhizi) | pest or weed control at 200 ppm [1] | inhibition of growth at 20 ppm [2] | pest or weed control at 200 ppm [3]

CC1CC1C(=O)N(O)Cc1ccc(-c2noc(C(F)(F)F)n2)cc1 (stereo not shown) [Compound 1.763, N-hydroxy-2-methyl-N-[[4-[5-(trifluoromethyl)-1,2,4-oxadiazol-3-yl]phenyl]methyl]-cyclopropane-carboxamide]
≥ 80%: pest or weed control at 200 ppm (Phakopsora Pachyrhizi) | pest or weed control at 200 ppm [1] | inhibition of growth at 20 ppm [2] | pest or weed control at 200 ppm [3]

C=CCN(Cc1ccc(-c2noc(C(F)(F)F)n2)cc1)C(=O)C1(C)COC1 [Compound 1.488, N-allyl-3-methyl-N-[[4-[5-(trifluoromethyl)-1,2,4-oxadiazol-3-yl]phenyl]methyl]-oxetane-3-carboxamide]
≥ 80%: pest or weed control at 200 ppm (Phakopsora Pachyrhizi) | pest or weed control at 200 ppm [1] | inhibition of growth at 20 ppm [2] | pest or weed control at 200 ppm [3]

COCC(=O)N(OC)C(C)c1ccc(-c2noc(C(F)(F)F)n2)cc1 (stereo not shown) [Compound 1.253, N,2-dimethoxy-N-(1-[4-[5-(trifluoromethyl)-1,2,4-oxadiazol-3-yl]phenyl]ethyl]-acetamide]
≥ 80%: pest or weed control at 200 ppm (Phakopsora Pachyrhizi) | pest or weed control at 200 ppm [1] | inhibition of growth at 20 ppm [2] | pest or weed control at 200 ppm [3]

C#CCN(Cc1ccc(-c2noc(C(F)(F)F)n2)cc1)C(=O)CC(F)(F)F [Compound 1.177, 3,3,3-trifluoro-N-prop-2-ynyl-N-[[4-[5-(trifluoromethyl)-1,2,4-oxadiazol-3-yl]phenyl]methyl]-propanamide]
≥ 80%: pest or weed control at 200 ppm (Phakopsora Pachyrhizi) | pest or weed control at 200 ppm [1] | inhibition of growth at 20 ppm [2] | pest or weed control at 200 ppm [3]

CC(C)N(Cc1ccc(-c2noc(C(F)(F)F)n2)cc1)C(=O)C1CC1(F)F (stereo not shown) [Compound 1.671, 2,2-difluoro-N-isopropyl-N-[[4-[5-(trifluoromethyl)-1,2,4-oxadiazol-3-yl]phenyl]methyl]-cyclopropane-carboxamide]
≥ 80%: pest or weed control at 200 ppm (Phakopsora Pachyrhizi) | pest or weed control at 200 ppm [1] | inhibition of growth at 20 ppm [2] | pest or weed control at 200 ppm [3]

CON(C)C(=O)N(Cc1ccc(-c2noc(C(F)(F)F)n2)cc1)C1CC1 [Compound 3.33, 1-cyclopropyl-3-methoxy-3-methyl-1-[[4-[5-(trifluoromethyl)-1,2,4-oxadiazol-3-yl]phenyl]methyl]urea]
≥ 80%: pest or weed control at 200 ppm (Phakopsora Pachyrhizi) | pest or weed control at 200 ppm [1] | inhibition of growth at 20 ppm [2] | pest or weed control at 200 ppm [3]

CCCN(Cc1ccc(-c2noc(C(F)(F)F)n2)cc1)C(=O)CC1CC1 [Compound 1.669, 2-cyclopropyl-N-propyl-N-[[4-[5-(trifluoromethyl)-1,2,4-oxadiazol-3-yl]phenyl]methyl]-acetamide]
≥ 80%: pest or weed control at 200 ppm (Phakopsora Pachyrhizi) | pest or weed control at 200 ppm [1] | inhibition of growth at 20 ppm [2] | pest or weed control at 200 ppm [3]
